Data published in patent US12240869B2, “Inhibitors of cyclin-dependent kinase 7 (CDK7)” (Syros Pharmaceuticals, Inc., priority 2018, dated 2025).

Assays:
[1] = test system: palbociclib-resistant ER+BC PDX (ST1799) model; experiment: Tumor growth inhibition in palbociclib-resistant PDX model; type: in vivo, mice; conditions: last day of 28-day dosing, Compound 101 6 mg/kg QD PO, fulvestrant 2.5 mg/kg weekly SC, palbociclib 50 mpk QD PO
Procedure: (§1) Tumor growth inhibition was evaluated in estrogen receptor-positive breast cancer (ER+BC) PDX models selected in vivo for resistance to the CDK4/6 inhibitor palbociclib (ST1799, n=1) or resistance to both palbociclib and fulvestrant (ST941, n=1). Dosing was initiated when tumors were 100-200 mm^3.

[2] = test system: palbociclib and fulvestrant double-resistant ER+BC PDX model (ST941); experiment: Tumor growth inhibition in palbociclib and fulvestrant double-resistant PDX model; type: in vivo, mice; conditions: fulvestrant 2.5 mg/kg weekly SC
Procedure: as §1

[3] = test system: ST390 (modeling pancreatic ductal adenocarcinoma (PDAC)); experiment: Tumor growth inhibition in PDAC PDX model; type: in vivo; conditions: 6 mg/kg QD PO, over ~28 days, dose well below the MTD
Procedure: In the PDAC model, Compound 101 was orally administered to tumor-bearing NOD/SCID mice at 6 mg/kg QD. […] The % regression was calculated as: (Mean TV Compound 101 @ EOT)/(Mean TV Compound 101 @ Day 0)×100. The same calculations were used for end of study (day 42).

[4] = test system: PDX models BR5010 (TNBC), LU5178 (SCLC), OV15398 (HGSOC); experiment: Tumor growth inhibition in TNBC, SCLC and HGSOC PDX models (Example 10); type: in vivo, NOD/SCID mice
[5] = test system: 12 PDX models representing SCLC, TNBC and HGSOC; experiment: TGI in 12 PDX models (Example 12); type: in vivo
Procedure: Dosing was initiated when tumors were 150-300 mm^3. […] TGI was calculated on the last day of dosing using the formula: TGI=(Vc1−Vt1)/(Vc0−Vt0), where Vc1 and Vt1 are the mean volumes of control and treated groups at the time of tumor extraction, while Vc0 and Vt0 are the same groups at the start of dosing.

[6] = test system: CRC cell line RKO (BRAF p.V600E mutant); experiment: In vitro combination study, CellTiter-Glo viability, CalcuSyn; type: cell-based; conditions: 5 days
Text: (§2) Combination effect is reflected by shift in IC50 of Compound 101 with addition of carboplatin or oxaliplatin or increased antiproliferative effect with lower amounts of either single agent. This is visualized in the isobolograms of FIG. 5, where points below the diagonal line reflect synergy.

[7] = test system: SCLC cell line (NCI-H1048); experiment: as above; type: cell-based; conditions: 5 days; median effect principle (Chou-Talalay)
Text: as §2

[8] = test system: CRC cell line SW480 (KRAS p.G12V mutant); experiment: as above; type: cell-based; conditions: 5 days
[9] = test system: HR+ breast cancer cell line MCF7 (PIK3CA p.E545K); experiment: as above; type: cell-based; conditions: 5 days
[10] = test system: HR+ breast cancer cell line T47D (PIK3CA p.H1047R); experiment: as above; type: cell-based; conditions: 5 days

Structure (SMILES) | Tumor growth inhibition (TGI) [1] | Tumor growth inhibition (TGI) ([2]; last day of 28-day dosing, Compound 101 6 mg/kg QD PO) | TGI [3] | transcriptional responses in xenograft tissue ([4]; after dosing) | TGI, in words ([4]; oral, 21 days, TNBC 10 mg/kg QD or 5 mg/kg BID, SCLC and HGSOC 3 mg/kg BID, followed 21 days after treatment) | tolerability / body weight loss ([5]; all once-daily doses tested, tumor-bearing mice) | TGI of deep responses ([5]; subset of models (58%, 7/12), TGI or regression) | MTD ([5]; tumor-bearing mice) | combination effect with oxaliplatin ([6]; median effect principle (Chou-Talalay)) | combination effect with trametinib ([6]; BRAF p.V600E mutant CRC) | combination effect with carboplatin [7] | combination effect with gemcitabine [7] | combination effect with trametinib [8] | combination effect with capecitabine ([9]; HR+ MCF-7 cells) | combination effect with alpelisib ([9]; PIK3CA p.E545K) | combination effect with alpelisib [10] | activity (tumor growth inhibition), in words ([2]; palbociclib 50 mpk QD PO)
CC1(C)CC[C@H](Nc2ncc(C(F)(F)F)c(-c3c[nH]c4c(P(C)(C)=O)c(C#N)ccc34)n2)CN1 [Compound 101, (S)-7-(dimethylphosphoryl)-3-(2-((6,6-dimethylpiperidin-3-yl)amino)-5-(trifluoromethyl)pyrimidin-4-yl)-1H-indole-6-carbonitrile] | 83% | 33% | 100% | Dose-dependent transcriptional responses in xenograft tissue were observed within 4 hours of dosing and were sustained for 24 hours | deep and sustained TGI, including regressions | well tolerated, with no evident body weight loss | > 95% | above 10 mg/kg once daily | showed synergy and was superior to either agent alone | significant synergy | showed synergy and was superior to either agent alone | showed synergy and was superior to either agent alone | significant synergy | showed synergy and was superior to either agent alone | significant synergy | significant synergy | 
C[C@]12CC[C@@H]3c4ccc(O)cc4C[C@@H](CCCCCCCCC[S+]([O-])CCCC(F)(F)C(F)(F)F)[C@H]3[C@@H]1CC[C@@H]2O (some centres unmarked) [fulvestrant, reference compound] |  |  |  |  |  |  |  |  |  |  |  |  |  |  |  |  | no activity
